From PubChem BioAssay (NCI)
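Protocol summary: plate cells (96-well), add compound at 5 concentrations, incubate 48 h, interpolate endpoints linearly. GI50: concentration for 50% inhibition of growth. At the TGI there is no net growth.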

Columns and labels:
Test in all cases: DTP human tumour cell line panel, 48 h
MOLT-4 leukemia = system: MOLT-4 leukemia
MDA-MB-435 = system: MDA-MB-435
SK-MEL-28 melanoma = system: SK-MEL-28 melanoma
RPMI-8226 leukemia = system: RPMI-8226 leukemia
PC-3 prostate = system: PC-3 prostate
OVCAR-5 ovarian = system: OVCAR-5 ovarian
NCI/ADR-RES ovarian = system: NCI/ADR-RES ovarian
NCI-H226 lung = system: NCI-H226 lung
EKVX NSCLC = system: EKVX NSCLC
RXF 393 renal = system: RXF 393 renal
NCI-H460 lung = system: NCI-H460 lung
HOP-92 NSCLC = system: HOP-92 NSCLC
SK-MEL-2 melanoma = system: SK-MEL-2 melanoma
CAKI-1 renal = system: CAKI-1 renal
K-562 leukemia = system: K-562 leukemia
UO-31 renal = system: UO-31 renal
SF-268 CNS = system: SF-268 CNS
SK-OV-3 ovarian = system: SK-OV-3 ovarian
T-47D breast = system: T-47D breast
HT29 colon = system: HT29 colon
HOP-62 NSCLC = system: HOP-62 NSCLC
CCRF-CEM leukemia = system: CCRF-CEM leukemia
NCI-H522 lung = system: NCI-H522 lung
ACHN renal = system: ACHN renal
OVCAR-4 ovarian = system: OVCAR-4 ovarian
HCC-2998 colon = system: HCC-2998 colon
MALME-3M melanoma = system: MALME-3M melanoma
HCT-116 colon = system: HCT-116 colon
COLO 205 colon = system: COLO 205 colon
M14 melanoma = system: M14 melanoma
MCF7 breast = system: MCF7 breast
HS 578T breast = system: HS 578T breast
UACC-257 melanoma = system: UACC-257 melanoma
SN12C renal = system: SN12C renal
NCI-H23 lung = system: NCI-H23 lung
BT-549 breast = system: BT-549 breast
SK-MEL-5 melanoma = system: SK-MEL-5 melanoma
A498 renal = system: A498 renal
UACC-62 melanoma = system: UACC-62 melanoma
786-0 renal = system: 786-0 renal
HL-60(TB) leukemia = system: HL-60(TB) leukemia
U251 CNS = system: U251 CNS
TK-10 renal = system: TK-10 renal
SR leukemia = system: SR leukemia
OVCAR-3 ovarian = system: OVCAR-3 ovarian
DU-145 prostate = system: DU-145 prostate
HCT-15 colon = system: HCT-15 colon
LOX IMVI melanoma = system: LOX IMVI melanoma
SF-295 CNS = system: SF-295 CNS
SNB-75 CNS = system: SNB-75 CNS
MDA-MB-231 breast = system: MDA-MB-231 breast
KM12 colon = system: KM12 colon
SF-539 CNS = system: SF-539 CNS
A549 NSCLC = system: A549 NSCLC
OVCAR-8 ovarian = system: OVCAR-8 ovarian
IGROV1 ovarian = system: IGROV1 ovarian
SW-620 colon = system: SW-620 colon
SNB-19 CNS = system: SNB-19 CNS

COc1ccc(-c2nc3sccn3c2/C=C/C(=O)c2cc(OC)c(OC)c(OC)c2)cc1 gave a GI50 (MOLT-4 leukemia) of 2.24 µM, a TGI (MOLT-4 leukemia) of 23.7 µM and a GI50 (MDA-MB-435) of 2.85 µM. For the same compound, the TGI (MDA-MB-435) was > 100 µM, the GI50 (SK-MEL-28 melanoma) was 4.05 µM and the TGI (SK-MEL-28 melanoma) was 51.8 µM. For the same compound, the GI50 (RPMI-8226 leukemia) was 2.24 µM, the TGI (RPMI-8226 leukemia) was 7.56 µM and the GI50 (PC-3 prostate) was 2.97 µM. The TGI (PC-3 prostate) was > 38.7 µM, the GI50 (OVCAR-5 ovarian) was 3.68 µM and the TGI (OVCAR-5 ovarian) was > 23.9 µM. The GI50 (NCI/ADR-RES ovarian) was 2.66 µM, the TGI (NCI/ADR-RES ovarian) was > 28 µM and the GI50 (NCI-H226 lung) was 2.95 µM. For the same compound, the TGI (NCI-H226 lung) was > 35 µM, the GI50 (EKVX NSCLC) was 3.1 µM and the TGI (EKVX NSCLC) was > 100 µM. For the same compound, the GI50 (RXF 393 renal) was 3.09 µM, the TGI (RXF 393 renal) was > 100 µM and the GI50 (NCI-H460 lung) was 2.54 µM. For the same compound, the TGI (NCI-H460 lung) was 11.1 µM, the GI50 (HOP-92 NSCLC) was 0.4 µM and the TGI (HOP-92 NSCLC) was 4.59 µM. For the same compound, the GI50 (SK-MEL-2 melanoma) was 3.58 µM, the TGI (SK-MEL-2 melanoma) was > 26.3 µM and the GI50 (CAKI-1 renal) was 2.02 µM. The TGI (CAKI-1 renal) was > 100 µM, the GI50 (K-562 leukemia) was 2.43 µM and the TGI (K-562 leukemia) was > 23.9 µM. The GI50 (UO-31 renal) was 2.12 µM, the TGI (UO-31 renal) was > 25.5 µM and the GI50 (SF-268 CNS) was 2.76 µM. For the same compound, the TGI (SF-268 CNS) was > 100 µM, the GI50 (SK-OV-3 ovarian) was 3.13 µM and the TGI (SK-OV-3 ovarian) was 24.6 µM. For the same compound, the GI50 (T-47D breast) was 1.86 µM, the TGI (T-47D breast) was 8.28 µM and the GI50 (HT29 colon) was 3.22 µM. For the same compound, the TGI (HT29 colon) was 11.8 µM, the GI50 (HOP-62 NSCLC) was 2.53 µM and the TGI (HOP-62 NSCLC) was > 25.7 µM. It also gave a GI50 (CCRF-CEM leukemia) of 3.4 µM, a TGI (CCRF-CEM leukemia) of 53.1 µM and a GI50 (NCI-H522 lung) of 4.16 µM. For the same compound, the TGI (NCI-H522 lung) was > 22.2 µM, the GI50 (ACHN renal) was 3.45 µM and the TGI (ACHN renal) was > 60.9 µM. The GI50 (OVCAR-4 ovarian) was 3.21 µM, the TGI (OVCAR-4 ovarian) was > 100 µM and the GI50 (HCC-2998 colon) was 3.03 µM. The TGI (HCC-2998 colon) was 14.4 µM, the GI50 (MALME-3M melanoma) was 4.39 µM and the TGI (MALME-3M melanoma) was > 100 µM. It also gave a GI50 (HCT-116 colon) of 2.19 µM, a TGI (HCT-116 colon) of 12.6 µM and a GI50 (COLO 205 colon) of 2.82 µM. The TGI (COLO 205 colon) was 13 µM, the GI50 (M14 melanoma) was 2.52 µM and the TGI (M14 melanoma) was > 27.6 µM. The GI50 (MCF7 breast) was 1.85 µM, the TGI (MCF7 breast) was > 100 µM and the GI50 (HS 578T breast) was 2.18 µM. The TGI (HS 578T breast) was > 24.1 µM, the GI50 (UACC-257 melanoma) was 15.2 µM and the TGI (UACC-257 melanoma) was 78.7 µM. The GI50 (SN12C renal) was 3 µM, the TGI (SN12C renal) was > 100 µM and the GI50 (NCI-H23 lung) was 2.49 µM. For the same compound, the TGI (NCI-H23 lung) was > 28.7 µM, the GI50 (BT-549 breast) was 2.56 µM and the TGI (BT-549 breast) was > 28.7 µM. The GI50 (SK-MEL-5 melanoma) was 1.42 µM, the TGI (SK-MEL-5 melanoma) was 2.98 µM and the GI50 (A498 renal) was 2.52 µM. It also gave a TGI (A498 renal) of 6.41 µM, a GI50 (UACC-62 melanoma) of 2.08 µM and a TGI (UACC-62 melanoma) of 9.15 µM. For the same compound, the GI50 (786-0 renal) was 3.7 µM, the TGI (786-0 renal) was > 100 µM and the GI50 (HL-60(TB) leukemia) was 3.33 µM. The TGI (HL-60(TB) leukemia) was 82.3 µM, the GI50 (U251 CNS) was 3.04 µM and the TGI (U251 CNS) was > 100 µM. The GI50 (TK-10 renal) was 5 µM, the TGI (TK-10 renal) was > 100 µM and the GI50 (SR leukemia) was 2.41 µM. The TGI (SR leukemia) was > 28.2 µM, the GI50 (OVCAR-3 ovarian) was 2.34 µM and the TGI (OVCAR-3 ovarian) was 7.37 µM. It also gave a GI50 (DU-145 prostate) of 2.86 µM, a TGI (DU-145 prostate) of 12.9 µM and a GI50 (HCT-15 colon) of 3.33 µM. For the same compound, the TGI (HCT-15 colon) was > 83 µM, the GI50 (LOX IMVI melanoma) was 2.11 µM and the TGI (LOX IMVI melanoma) was 6.59 µM. The GI50 (SF-295 CNS) was 2.91 µM, the TGI (SF-295 CNS) was 18.3 µM and the GI50 (SNB-75 CNS) was 1.3 µM. The TGI (SNB-75 CNS) was > 20.7 µM, the GI50 (MDA-MB-231 breast) was 3.28 µM and the TGI (MDA-MB-231 breast) was > 100 µM. For the same compound, the GI50 (KM12 colon) was 2.56 µM, the TGI (KM12 colon) was 7.75 µM and the GI50 (SF-539 CNS) was 1.79 µM. The TGI (SF-539 CNS) was 4.96 µM, the GI50 (A549 NSCLC) was 2.92 µM and the TGI (A549 NSCLC) was > 22.9 µM. For the same compound, the GI50 (OVCAR-8 ovarian) was 3.03 µM, the TGI (OVCAR-8 ovarian) was > 21.8 µM and the GI50 (IGROV1 ovarian) was 1.24 µM. The GI50 (SW-620 colon) was 3.01 µM, the TGI (SW-620 colon) was > 100 µM and the GI50 (SNB-19 CNS) was 3.32 µM. For the same compound, the TGI (SNB-19 CNS) was > 100 µM.
